According to patent US20070232601A1, “Vla-4 Inhibitor” (priority 2004, published 2007):

Molecular target: T1, hα4 and β1 integrins (VLA-4) (Homo sapiens, UniProt P05556+P13612)
T1 construct: expressed in transfected cells; host or cells: CHO cells
Test: In vitro evaluation: inhibition of binding of CHO cells expressing hα4 and β1 integrins to Eu3+-hVCAM-1 D1D7-IgG
Settings: ligand Eu3+-hVCAM-1 D1D7-IgG 2 nM, Ki calculated from IC50
Experimental: CHO cells which were forced to be expressed by transduction of hα4 and β1 integrins are seeded (3×10^4 cells/100 μl/well) on a Costar 3599 plate, and cultured for 2 days. A medium is washed with a buffer A* two times, and Eu^3+-hVCAM-1 D1D7-IgG which was diluted with an assay buffer A** to 2 nM is added at 50 μl/well. A test substance which was diluted with 2% DMSO-assay buffer (in the presence or the absence of 6% human serum albumin) is added at 50 μl/well (A solution which was separately diluted is added to a well in which Scatchard analysis is performed), this is stirred with a plate mixer for 5 minutes, and allowed to stand at room temperature for 1 hour. Thereafter, this is washed with a buffer A four times, a potentiating reagent (manufactured by DELFIA) is added at 100 μl/well, this is shaken for 5 minutes using a plate mixer, and a fluorescence intensity is measured with a time-resolved fluorometer (DELFIA Wallac). IC50 (concentration at which binding of CHO cell and Eu^3+-hVCAM-1 D1D7-IgG is inhibited by 50%) of a test substance is obtained from an integration rate obtained from a calculation equation: [(FT−FNS)−(FI−FNS)]/[(FT−FNS)]×100, wherein FT indicates a fluorescence intensity of a well not containing a test substance, FNS indicates a fluorescence intensity of a well not containing a test substance and hVCAM-1 D1D7-IgG, and FI indicates a fluorescence intensity containing a test substance. A Kd value showing strength of binding and Bmax (maximum binding amount) were presumed in a range of 0.06 to 20 nM according to the Scachard analysis method. [formula]
A Ki value was calculated according to the above equation ([L] is ligand concentration)
[* buffer A: 25 mM HEPES (pH 7.5), 150 mM NaCl, 1 mM Ca^2+, 1 mM Mg^2+, 4 mM Mn^2+; ** assay buffer: 25 mM HEPES (pH 7.5), 150 mM NaCl, 1 mM Ca^2+, 1 mM Mg^2+, 4 mM Mn^2+, 0.1% BSA, 20 μM DTPA, with/without 6% ALBUMIN, HUMAN SERUM (C/NA-1653, SIGMA)]

T1 sequence (P13612 34-1032): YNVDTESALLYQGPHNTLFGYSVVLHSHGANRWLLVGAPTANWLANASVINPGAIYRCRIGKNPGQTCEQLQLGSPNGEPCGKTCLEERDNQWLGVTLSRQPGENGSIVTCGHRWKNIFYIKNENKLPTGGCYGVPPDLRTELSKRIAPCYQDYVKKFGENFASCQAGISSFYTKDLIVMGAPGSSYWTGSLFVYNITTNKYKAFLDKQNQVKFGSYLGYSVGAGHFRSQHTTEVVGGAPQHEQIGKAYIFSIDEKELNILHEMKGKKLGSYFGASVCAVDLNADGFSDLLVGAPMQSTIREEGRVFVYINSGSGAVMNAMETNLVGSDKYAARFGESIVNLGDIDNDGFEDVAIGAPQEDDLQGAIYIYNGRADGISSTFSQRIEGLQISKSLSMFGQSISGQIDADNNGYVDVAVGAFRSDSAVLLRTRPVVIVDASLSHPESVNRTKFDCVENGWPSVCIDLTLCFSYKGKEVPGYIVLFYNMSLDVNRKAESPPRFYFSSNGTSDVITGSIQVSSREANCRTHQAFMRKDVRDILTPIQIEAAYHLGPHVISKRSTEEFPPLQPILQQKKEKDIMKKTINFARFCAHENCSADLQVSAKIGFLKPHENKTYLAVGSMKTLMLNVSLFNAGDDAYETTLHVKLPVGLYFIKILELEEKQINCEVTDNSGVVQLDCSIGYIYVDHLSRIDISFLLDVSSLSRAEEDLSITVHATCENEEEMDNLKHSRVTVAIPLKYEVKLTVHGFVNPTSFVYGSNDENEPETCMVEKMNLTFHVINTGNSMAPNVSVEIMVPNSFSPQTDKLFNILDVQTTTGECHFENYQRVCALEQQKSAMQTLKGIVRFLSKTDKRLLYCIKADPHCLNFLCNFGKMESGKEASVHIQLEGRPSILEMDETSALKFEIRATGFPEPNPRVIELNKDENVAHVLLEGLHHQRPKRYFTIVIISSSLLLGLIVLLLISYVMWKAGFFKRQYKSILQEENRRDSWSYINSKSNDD
T1 sequence (P05556 21-798): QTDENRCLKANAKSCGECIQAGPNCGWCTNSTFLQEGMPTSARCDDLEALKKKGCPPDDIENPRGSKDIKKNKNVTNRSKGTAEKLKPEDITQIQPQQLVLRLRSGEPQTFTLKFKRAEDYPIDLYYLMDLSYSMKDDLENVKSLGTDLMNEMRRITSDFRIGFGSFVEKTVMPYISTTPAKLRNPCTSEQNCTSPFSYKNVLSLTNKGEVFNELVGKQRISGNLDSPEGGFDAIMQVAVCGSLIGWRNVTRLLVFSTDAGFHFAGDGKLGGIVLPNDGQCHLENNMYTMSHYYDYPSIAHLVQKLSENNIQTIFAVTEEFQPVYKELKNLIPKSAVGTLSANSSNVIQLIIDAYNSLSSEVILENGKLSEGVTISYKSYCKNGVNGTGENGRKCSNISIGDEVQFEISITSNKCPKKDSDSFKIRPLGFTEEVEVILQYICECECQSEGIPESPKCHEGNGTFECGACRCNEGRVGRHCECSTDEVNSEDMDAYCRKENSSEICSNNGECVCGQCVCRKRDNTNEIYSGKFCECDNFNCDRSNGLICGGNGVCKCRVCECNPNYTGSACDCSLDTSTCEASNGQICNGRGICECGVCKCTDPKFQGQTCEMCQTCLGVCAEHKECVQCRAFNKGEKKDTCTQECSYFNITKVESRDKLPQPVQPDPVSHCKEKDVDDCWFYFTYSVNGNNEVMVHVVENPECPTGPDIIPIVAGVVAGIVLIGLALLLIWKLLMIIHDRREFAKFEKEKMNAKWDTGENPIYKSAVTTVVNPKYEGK

| Molecule | Ki [nM] |
| --- | --- |
| 3-[2-[1-[4-(3-Benzo[b]thiophenylcarbonyl)amino-5-chloro-2-fluorophenyl]acetyl]-(3S)-ethoxy-(2S)-pyrrolidinyl]-5-oxazolyl]propionic acid methyl ester [Example 99] | 5.3 |
| COc1cc(CC(=O)N[C@@H](CC(C)C)c2cc(CCC(=O)O)on2)ccc1NC(=O)Nc1ccccc1C [CP664511] | 1.5 |
| CO[C@H]1C[C@@H](c2ncc(CCC(=O)O)s2)N(C(=O)Cc2cc(Cl)c(NC(=O)c3csc4ccccc34)cc2Cl)C1 [Example 3, 3-[2-[1-[[4-[(3-Benzo[b]thienylcarbonyl)amino]-2,5-dichlorophenyl]acetyl]-(4S)-methoxy-(2S)-pyrrolidinyl]-5-thiazolyl]propionic acid] | 0.58 |
| CO[C@H]1C[C@@H](c2ncc(CCC(=O)O)s2)N(C(=O)Cc2cc(Cl)c(NC(=O)c3coc4ccccc34)cc2Cl)C1 [Example 5, 3-[2-[1-[4-[(1-Benzofuran-3-ylcarbonyl)amino]-2,5-dichlorophenylacetyl]-(4S)-methoxy-(2S)-pyrrolidinyl]-5-thiazolyl]propionic acid] | 0.6 |
| CO[C@H]1C[C@@H](c2ncc(CCC(=O)O)s2)N(C(=O)Cc2cc(Cl)c(NC(=O)c3coc4ccccc34)cc2F)C1 [Example 6, 3-[2-[1-[4-[(1-Benzofuran-3-ylcarbonyl)amino]-5-chloro-2-fluorophenylacetyl]-(4S)-methoxy-(2S)-pyrrolidinyl]-5-thiazolyl]propionic acid] | 0.4 |
| CO[C@H]1C[C@@H](c2ncc(CCC(=O)O)s2)N(C(=O)Cc2cc(Cl)c(NC(=O)c3nn(C)c4ccccc34)cc2F)C1 [Example 7, 3-[2-[1-[5-Chloro-2-fluoro-4-(1-methyl-3-indazolylcarbonyl)aminophenylacetyl]-(4S)-methoxy-(2S)-pyrrolidinyl]-5-thiazolyl]propionic acid] | 0.97 |
| CO[C@H]1C[C@@H](c2ncc(CCC(=O)O)s2)N(C(=O)Cc2ccc3nc(Nc4cc(F)ccc4C)oc3c2F)C1 [Example 8] | 0.34 |
| COc1ccc(F)cc1Nc1nc2ccc(CC(=O)N3C[C@@H](OC)C[C@H]3c3ncc(CCC(=O)O)s3)c(F)c2o1 [Example 9, 3-[2-[1-[[7-Fluoro-2-(5-fluoro-2-methoxyphenylamino)-1,3-benzoxazol-6-yl]acetyl]-(4S)-methoxy-(2S)-pyrrolidinyl]-5-thiazolyl]propionic acid] | 0.96 |
| CO[C@H]1C[C@@H](c2ncc(CCC(=O)O)s2)N(C(=O)Cc2ccc3nc(-c4cn(C)c5ccccc45)oc3c2F)C1 [Example 11, 3-[2-[1-[7-Fluoro-2-(1-methylindol-3-yl)-1,3-benzoxazol-6-ylacetyl]-(4S)-methoxy-(2S)-pyrrolidinyl]-5-thiazolyl]propionic acid] | 0.5 |
| CO[C@H]1C[C@@H](c2ncc(CCC(=O)O)o2)N(C(=O)Cc2cc(Cl)c(NC(=O)c3cn(C)c4ccccc34)cc2Cl)C1 [Example 12, 3-[2-[1-[2,5-Dichloro-4-(1-methyl-3-indolylcarbonylamino)phenylacetyl]-(4S)-methoxy-(2S)-pyrrolidinyl]-5-oxazolyl]propionic acid] | 18 |
| CO[C@H]1C[C@@H](c2ncc(CCC(=O)O)o2)N(C(=O)Cc2cc(Cl)c(NC(=O)c3cn(C)c4ccccc34)cc2F)C1 [Example 13, 3-[2-[1-[5-Chloro-2-fluoro-4-(1-methyl-3-indolylcarbonyl)aminophenylacetyl]-(4S)-methoxy-(2S)-pyrrolidinyl]-5-oxazolyl]propionic acid] | 17 |
| CO[C@H]1C[C@@H](c2ncc(CCC(=O)O)o2)N(C(=O)Cc2cc(Cl)c(NC(=O)c3csc4ccccc34)cc2Cl)C1 [Example 14, 3-[2-[1-[[4-[(3-Benzo[b]thienylcarbonyl)amino]-2,5-dichlorophenyl]acetyl]-(4S)-methoxy-(2S)-pyrrolidinyl]-5-oxazolyl]propionic acid] | 4 |
| CO[C@H]1C[C@@H](c2ncc(CCC(=O)O)o2)N(C(=O)Cc2cc(Cl)c(NC(=O)c3csc4ccccc34)cc2F)C1 [Example 15, 3-[2-[1-[[4-[(3-Benzo[b]thienylcarbonyl)amino]-5-chloro-2-fluorophenyl]acetyl]-(4S)-methoxy-(2S)-pyrrolidinyl]-5-oxazolyl]propionic acid] | 4.5 |
| COc1ccc(F)cc1Nc1nc2ccc(CC(=O)N3C[C@@H](OC)C[C@H]3c3ncc(CCC(=O)O)o3)c(F)c2o1 [Example 16, 3-[2-[1-[[7-Fluoro-2-(5-fluoro-2-methoxyphenylamino)-1,3-benzoxazol-6-yl]acetyl]-(4S)-methoxy-(2S)-pyrrolidinyl]-5-oxazolyl]propionic acid] | 22 |
| COc1ccccc1Nc1nc2ccc(CC(=O)N3C[C@@H](OC)C[C@H]3c3ncc(CCC(=O)O)o3)c(F)c2o1 [Example 17, 3-[2-[1-[[7-Fluoro-2-(2-methoxyphenylamino)-1,3-benzoxazol-6-yl]acetyl]-(4S)-methoxy-(2S)-pyrrolidinyl]-5-oxazolyl]propionic acid] | 15 |
| Cn1cc(C(=O)Nc2cc(Cl)c(CC(=O)N3C[C@@H](F)C[C@H]3c3ncc(CCC(=O)O)s3)cc2Cl)c2ccccc21 [Example 18, 3-[2-[1-[2,5-Dichloro-4-(1-methyl-3-indolylcarbonylamino)phenylacetyl]-(4S)-fluoro-(2S)-pyrrolidinyl]-5-thiazolyl]propionic acid] | 1.1 |
| Cn1cc(C(=O)Nc2cc(F)c(CC(=O)N3C[C@@H](F)C[C@H]3c3ncc(CCC(=O)O)s3)cc2Cl)c2ccccc21 [Example 19, 3-[2-[1-[5-Chloro-2-fluoro-4-(1-methyl-3-indolylcarbonyl)aminophenylacetyl]-(4S)-fluoro-(2S)-pyrrolidinyl]-5-thiazolyl]propionic acid] | 0.94 |
| O=C(O)CCc1cnc([C@@H]2C[C@H](F)CN2C(=O)Cc2cc(Cl)c(NC(=O)c3csc4ccccc34)cc2Cl)s1 [Example 20, 3-[2-[1-[[4-[(3-Benzo[b]thienylcarbonyl)amino]-2,5-dichlorophenyl]acetyl]-(4S)-fluoro-(2S)-pyrrolidinyl]-5-thiazolyl]propionic acid] | 0.69 |
| O=C(O)CCc1cnc([C@@H]2C[C@H](F)CN2C(=O)Cc2cc(Cl)c(NC(=O)c3csc4ccccc34)cc2F)s1 [Example 21, 3-[2-[1-[[4-[(3-Benzo[b]thienylcarbonyl)amino]-5-chloro-2-fluorophenyl]acetyl]-(4S)-fluoro-(2S)-pyrrolidinyl]-5-thiazolyl]propionic acid] | 0.61 |
| O=C(O)CCc1cnc([C@@H]2C[C@H](F)CN2C(=O)Cc2cc(Cl)c(NC(=O)c3coc4ccccc34)cc2F)s1 [Example 22, 3-[2-[1-[[4-[(1-Benzofuran-3-ylcarbonyl)amino]-5-chloro-2-fluorophenyl]acetyl]-(4S)-fluoro-(2S)-pyrrolidinyl]-5-thiazolyl]propionic acid] | 0.23 |
| COc1ccccc1Nc1nc2ccc(CC(=O)N3C[C@@H](F)C[C@H]3c3ncc(CCC(=O)O)s3)c(F)c2o1 [Example 23, 3-[2-[1-[[7-Fluoro-2-(2-methoxyphenylamino)-1,3-benzoxazol-6-yl]acetyl]-(4S)-fluoro-(2S)-pyrrolidinyl]-5-thiazolyl]propionic acid] | 0.35 |
